Measured values: patent publication US10544138B2, “Tricyclic kinase inhibitors of MELK and methods of use” (Dana-Farber Cancer Institute, Inc., priority 2015, dated 2020)
Entries after “also recorded” stand apart in the source; their conditions may differ.

Columns and labels:
[1] = system: U2OS cells; experiment: Live-cell imaging of mitotic progression in U2OS-GFP-H2B cells; type: cell-based, human; conditions: 1 μM, asynchronized U2OS cells; control 31.1 min
Description: (§1) U2OS-GFP-H2B cells were treated with vehicle control (0.02% DMSO, v/v) or 1 μM THZ-4-63-1, and subjected to live imaging. Time is given in hours:minutes, relative to the initial time of drug treatment. The arrow points to chromosomes that haven't incorporated into the metaphase plate. […] MDA-MB-468 cells expressing tet-on-shMELK and GFPH2B cells were treated with doxycycline for three days, before subjected to live imaging. Panel D contains images of immunoblotting of lysates from cells treated as in Panel C. Panel E contains images showing mitotic cell death in a cell treated with THZ-4-63-1. The table indicates the quantification of cell death events. Panel F contains images showing that treatment with THZ-4-63-1 impairs chromosome alignment. Cells were treated with DMSO control, or THZ-4-63-1 (5 μM) for 4 hours, followed by MG132 (10 μM) for 1 h. Cells were fixed and stained with anti-CREST, anti-α-tubulin, and DAPI to visualize chromosomes and kinetochores. The histogram indicates the quantifications of cells in metaphase with misaligned chromosomes.
To utilize this novel compound for probing the roles of MELK in mitosis, we first treated asynchronized U2OS cells with THZ-4-63-1 (1 μM), and subjected the cells for live-cell imaging. The fusion protein GFP-Histone H2B was stably introduced into the cells to facilitate observing chromosome dynamics^2,7. […]

[2] = biological target: PLK1 (Homo sapiens, UniProt P53350); experiment: Recombinant mitotic kinase assay, PLK1; type: biochemical; conditions: recombinant kinases
Description: […] assays were performed with recombinant protein of the indicated mitotic kinase (left) and AMPK family kinases (right) in the presence of THZ-4-63-1. […] Cells were treated with nocodazole (100 ng/ml) for 18 h or not treated (Asyn., asynchronous). Nocodazole-arrested mitotic cells (M) were isolated via shake-off. The attached cells enriched in G2 phase (G2) were harvested. A portion of the mitotic cells were washed off nocodazole and released into G1 phase after 4 hours of incubation (G1). […] In Panel D, mitotic lysates were prepared from the indicated cells, and treated with λ-phosphatase at 30° C. In Panel E, nocodazole-arrested mitotic cells were treated with increasing concentration of THZ-4-63-1 for 30 min. Cell lysates were subjected to immunoblotting.
To discover a selective MELK inhibitor, a few molecule scaffolds with the potential of binding to MELK were identified, including 2,4-disubstituted pyrimidines and benzonaphthyridinones. […] To investigate if THZ-4-63-1 confers selective inhibition on MELK, we tested its effect on other mitotic kinases. In assays using recombinant kinases, MELK kinase activity was 20-fold more sensitive to THZ-4-63-1, than that of Aurora A, Aurora B, CDK1, or PLK1 (FIG. 1B).

[3] = system: MDA-MB-468 cells; experiment: Live imaging of chromosome alignment in MDA-MB-468 GFP-H2B cells; type: cell-based, human; conditions: 1 μM
Description: MDA-MB-468 cells stably expressing GFP-H2B were treated with vehicle control, or 1 μM THZ-4-63-1, and immediately subjected to live imaging. Time given in hours:minutes, relative to the starting point of treatment. […] Each dot represent an individual mitotic event.
To utilize this novel compound for probing the roles of MELK in mitosis, we first treated asynchronized U2OS cells with THZ-4-63-1 (1 μM), and subjected the cells for live-cell imaging. The fusion protein GFP-Histone H2B was stably introduced into the cells to facilitate observing chromosome dynamics^2,7. […] MELK inhibition also delayed mitotic progression in human breast cancer cell line, MDA-MB-468 (FIG. 6). […] Together, these findings indicate that MELK is novel regulator for the normal progression of mitosis, and that inactivation or depletion of MELK induces a metaphase-like arrest in cancer cells.

[4] = system: metaphase chromosome alignment; experiment: Metaphase chromosome alignment, immunofluorescence after MG132; type: cell-based; conditions: 5 μM for 4 h followed by MG132 (10 μM) 1 h
Description: as §1
Indeed, we observed in asynchronized cells that MELK inhibition caused the appearance of scatted chromosome near the metaphase plate (arrowed, FIG. 2A). […]

[5] = system: chromosome passenger complex (Survivin, Aurora B); experiment: Localization of chromosome passenger complex, immunofluorescence; type: cell-based; conditions: with nocodazole (0.33 μM) and MG132 (10 μM) 3 h
Description: Cell lysates were prepared for immunoblotting. […] HeLa cells were treated with DMSO or THZ-4-63-1 (5 μM) for 4 h followed by 1 h treatment of MG132 (10 μM). Cells were fixed and stained with anti-H3T3ph and anti-CREST. […] Cells were treated as in FIG. 2, Panel D, and additionally treated with MG132 (10 μM) for 1 h before fixation. The histogram indicates the quantification of H3S10ph signal. […] MCF-10A cells stably expressing empty vector (EV) or MELK were fixed for immunostaining. Images were captured with identical exposure time. H3T3ph intensity was quantified by the use of ImageJ. […] Recombinant MELK protein (kinase domain) was incubated with recombinant Histone H3 for 30 min at 30° C. Samples were subjected to immunoblotting using the indicated antibodies. […] Cells stably expressing GFP-MELK were fixed by formaldehyde and stained with anti-H3S10ph. […] Asynchronized (Async.) or nocodazole-arrested mitotic cells were subjected to fractionation, with sample prepared for immunoblotting. Panels H and I are images showing that MELK inhibition impairs the localization of chromosome passenger complex (CPC), indicated by the immunofluorescence detecting Survivin (G) and Aurora B (H). In addition to the presence of doxycyclin or THZ-4-63-1, cells were treated with nocodazole (0.33 μM) and MG132 (10 μM) for 3 h before fixation. […]

[6] = system: Aurora kinases; experiment: Aurora kinase phosphorylation in mitotic cells, immunoblotting; type: cell-based; conditions: 30 min
Description: Cell lysates were subjected to immunoblotting. […] The fluorescent signals of immunblotting were quantified using Image Studio Lite software (Licor Biosciences, Lincoln, Neb.). The signal of phosphorylated Aurora kinases was normalized to that of loading control (α-tubulin).
Cell lysates were prepared for immunoblotting. In Panels B and C, THZ-4-63-1 inhibits H3T3 phosphorylation in HeLa (B) and U2OS (C) cells. Nocodazole arrested mitotic cells were treated with THZ-4-63-1 at the indicated doses for 30 min. […] Cell lysates were subjected to immunblotting. The signal of H3T3 phosphorylation was normalized to that of α-tubulin (right).
We next proceeded to test if THZ-4-63-1 inhibits MELK activity in vivo. With a lack of established kinase substrates of MELK during mitosis, we used the auto-phosphorylation of MELK as a surrogate to indicate the activity of MELK. […] We then harvested nocodazole-arrested mitotic cells, and treated cells with increasing concentrations of THZ-4-63-1.
We exposed paclitaxel- or nocodazole-arrested mitotic cells to the individual inhibitor for 30 min in the presence of MG132, and collected lysates for examining signaling involved in chromosome alignment. […] Recent studies unravel a novel role of Aurora B in phosphorylating Haspin^7, a major factor responsible for phosphorylating Histone H3 at Thr3^14. […]

PLK1, sequence (P53350 whole entry, species assumed): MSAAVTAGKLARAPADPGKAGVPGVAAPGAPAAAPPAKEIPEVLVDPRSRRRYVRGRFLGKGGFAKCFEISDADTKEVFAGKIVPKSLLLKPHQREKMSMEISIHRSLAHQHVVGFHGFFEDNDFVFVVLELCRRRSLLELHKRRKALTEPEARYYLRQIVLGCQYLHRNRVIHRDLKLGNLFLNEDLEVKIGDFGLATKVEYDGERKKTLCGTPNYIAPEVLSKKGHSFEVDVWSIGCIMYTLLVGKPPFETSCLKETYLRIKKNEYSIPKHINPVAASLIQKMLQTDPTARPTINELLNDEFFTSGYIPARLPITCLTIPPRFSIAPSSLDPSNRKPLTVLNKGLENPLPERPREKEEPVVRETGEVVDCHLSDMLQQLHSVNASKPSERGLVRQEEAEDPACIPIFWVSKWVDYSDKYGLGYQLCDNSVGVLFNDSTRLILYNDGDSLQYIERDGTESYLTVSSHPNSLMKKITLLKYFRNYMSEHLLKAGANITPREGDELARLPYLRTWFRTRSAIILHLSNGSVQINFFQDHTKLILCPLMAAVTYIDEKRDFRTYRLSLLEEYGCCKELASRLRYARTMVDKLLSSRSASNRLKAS

MELK kinase activity more sensitive than that of PLK1 [2]: 20 fold
Compound: CN(C)Cc1ccc(-n2c(=O)ccc3cnc4ccc(-c5cc(Cl)c(O)c(Cl)c5)cc4c32)cc1 [THZ-4-63-1]
Time from nuclear envelope breakdown (NEBD) to anaphase, mean [1]: 66.4 min
Chromosome alignment [3]: inhibits chromosome alignment
Cells with failure in metaphase chromosome alignment [4]: approximately 80%
Centromeric localization of CPC subunits Survivin and Aurora B [5]: became diffusive
Phosphorylation of Aurora kinases [6]: lack of obvious inhibition; also recorded: did not inhibit
